Test results from patent US20250161308A1, “Methods of Treating Covid-Related Disorders” (priority 2022, published 2025).
Like-named read-outs stand apart in the source and are kept apart here.

Assays:
[1] = test system: Rat primary cortical neuron cultures; assay type: cell-based; settings: for Significance of neuroprotection vs 1 uM LPS: 24 h LPS; for protection of primary neurons from LPS-stimulated inflammatory toxicity: at at least one dose tested
[2] = test system: scopolamine-induced spatial memory deficits in rats; assay: Scopolamine-induced spatial memory deficit, Morris water maze (3 mg/kg scopolamine, 8 days); assay type: in vivo, rat
[3] = test system: THP1-differentiated macrophages; assay type: cell-based, human; set-up: key to Significant reduction in IL-6 / Significant reduction in TNF-α / Significant reduction in IL-1β: NS: indicates a non-significant reduction in the indicated cytokine; +: indicates a p value<0.05 in Tukey post test; ++: indicates a p value<0.01 in Tukey post test; settings: for Significant reduction in IL-1β / Significant reduction in IL-6 / Significant reduction in TNF-α: 24 hrs LPS
[4] = test system: LPS-induced cognitive deficit in CD-1 mice; assay: Rodent LPS model of brain inflammation, T-maze spontaneous alternation; assay type: in vivo, mouse; settings: for Recovery (%) / Spontaneous alternation (%) Mean: LPS 250 μg/kg
Rat hippocampal neurons [5] = assay: Synaptogenesis assay; assay type: cell-based; settings: for Significant increase in: Synapses: Table 4 study
[6] = test system: pulmonary LPS-stimulated rats; assay: Immune cell infiltration in BALF, LPS acute pulmonary inflammation; assay type: in vivo, rat
[7] = test system: pulmonary LPS-stimulated rats; assay: Cytokine expression in BALF supernatant (multiplex immunoassay), LPS acute pulmonary inflammation; assay type: in vivo, rat
Rat hippocampal neurons [8] = assay: Neurite outgrowth assay; assay type: cell-based

CCC(C)CN1CC2N(Cc3ccc(OC(F)F)cc3)CCC(=O)N2[C@@H](C)C1=O (some centres unmarked) [Compound 6a] was tested, and the “Significance of neuroprotection vs 1 uM LPS” value (from here on “Significance … vs 1 uM LPS”) ([1]; 0.1 nM) was “+++ (+++ indicates p<0.001)”, the “Significance … vs 1 uM LPS” value ([1]; 1 nM) was “+++ (+++ indicates p<0.001)” and the “Significance … vs 1 uM LPS” value ([1]; 10 nM) was “+++ (+++ indicates p<0.001)”. The “Significance … vs 1 uM LPS” value ([1]; 100 nM) was “+++ (+++ indicates p<0.001)”, the “Significance … vs 1 uM LPS” value ([1]; 1 μM) was “+++ (+++ indicates p<0.001)” and the “protection of primary neurons from LPS-stimulated inflammatory toxicity” value [1] was “protected primary neurons from LPS-stimulated inflammatory toxicity”. For the same molecule, the “Cognitive Improvement” value ([2]; 1 mg/kg PO) was “− (− indicates post-test p-value above 0.06)”, the “Cognitive Improvement” value ([2]; 10 mg/kg PO) was “++ (++ indicates post-test p-value between 0.05 and 0.01)” and the “Significant reduction in IL-1β” value ([3]; 0.1 nM) was “NS”. For the same molecule, the “Significant reduction in IL-6” value ([3]; 0.1 nM) was “NS”, the “Significant reduction in TNF-α” value ([3]; 0.1 nM) was “NS” and the “Significant reduction in IL-1β” value ([3]; 10 nM) was “NS”. The “Significant reduction in IL-6” value ([3]; 10 nM) was “NS”, the “Significant reduction in TNF-α” value ([3]; 10 nM) was “NS” and the “Significant reduction in IL-1β” value ([3]; 1000 nM) was “+ (indicates a p value<0.05 in Tukey post test)”. The “Significant reduction in IL-6” value ([3]; 1000 nM) was “NS”, the “Significant reduction in TNF-α” value ([3]; 1000 nM) was “+ (indicates a p value<0.05 in Tukey post test)” and the “expression of IL-1β (in words)” value ([3]; at at least one tested dose) was “significantly reduced the expression of IL-1β and TNF-α”. The “expression of TNF-α (in words)” value ([3]; at at least one tested dose) was “significantly reduced the expression of IL-1β and TNF-α”.

In the case of CCC(C)CN1CC2N(Cc3ccc(C(F)(F)F)cc3)CCC(=O)N2[C@@H](C)C1=O (some centres unmarked) [Compound 5a], the “Significance … vs 1 uM LPS” value ([1]; 0.1 nM) is reported as “+++ (+++ indicates p<0.001)”, the “Significance … vs 1 uM LPS” value ([1]; 1 nM) is reported as “+++ (+++ indicates p<0.001)” and the “Significance … vs 1 uM LPS” value ([1]; 10 nM) is reported as “+++ (+++ indicates p<0.001)”. For the same molecule, the “Significance … vs 1 uM LPS” value ([1]; 100 nM) was “+++ (+++ indicates p<0.001)”, the “Significance … vs 1 uM LPS” value ([1]; 1 μM) was “+++ (+++ indicates p<0.001)” and the “protection of primary neurons from LPS-stimulated inflammatory toxicity” value [1] was “protected primary neurons from LPS-stimulated inflammatory toxicity”. For the same molecule, the “Recovery (%)” value ([4]; 1.25 mg/kg p.o. 14 days) was 58%, the “Spontaneous alternation (%) Mean” value ([4]; 1.25 mg/kg p.o. 14 days) was 59% and the “Spontaneous alternation (%) Mean” value ([4]; 1.25 mg/kg p.o. 14 days, listed as Cmpd 5a) was 59.3%. The “Recovery (%)” value ([4]; 2.5 mg/kg p.o. 14 days) was 53%, the “Spontaneous alternation (%) Mean” value ([4]; 2.5 mg/kg p.o. 14 days) was 58% and the “Spontaneous alternation (%) Mean” value ([4]; 2.5 mg/kg p.o. 14 days, listed as Cmpd 5a) was 57.9%. The “Recovery (%)” value ([4]; 5 mg/kg p.o. 14 days) was 64%, the “Spontaneous alternation (%) Mean” value ([4]; 5 mg/kg p.o. 14 days) was 61% and the “Spontaneous alternation (%) Mean” value ([4]; 5 mg/kg p.o. 14 days, listed as Cmpd 5a) was 60.7%. For the same molecule, the “Recovery (%)” value ([4]; 10 mg/kg p.o. 14 days) was 53%, the “Spontaneous alternation (%) Mean” value ([4]; 10 mg/kg p.o. 14 days) was 58% and the “Spontaneous alternation (%) Mean” value ([4]; 10 mg/kg p.o. 14 days, listed as Cmpd 5a) was 57.9%. The “Recovery (%)” value ([4]; 20 mg/kg p.o. 14 days) was 61%, the “Spontaneous alternation (%) Mean” value ([4]; 20 mg/kg p.o. 14 days) was 60% and the “Spontaneous alternation (%) Mean” value ([4]; 20 mg/kg p.o. 14 days, listed as Cmpd 5a) was 60.0%. For the same molecule, the “significance of reversal of LPS-induced cognitive deficit (in words)” value ([4]; T-maze) was “significant reversal of LPS-induced cognitive deficits at all doses”, the “synapse counts (in words)” value (Rat hippocampal neurons [5]) was “increase synapse counts at doses of 1 nM and 100 nM” and the “Significant increase in: Synapses” value (Rat hippocampal neurons [5]; 1 nM) was “++++ (++++ = p < 0.0001)”. The “Significant increase in: Synapses” value (Rat hippocampal neurons [5]; 100 nM) was “++++ (++++ = p < 0.0001)”, the “Neutrophils in BALF, reduction vs disease control” value (shortened to “Neutrophils in BALF, reduction”) ([6]; 0.075 mg/kg IV) was “++ (++ = >25% reduction in cell count vs disease control)” and the “Total Leukocytes in BALF, reduction vs disease control” value (from here on “Total Leukocytes in BALF, reduction”) ([6]; 0.075 mg/kg IV) was “++ (++ = >25% reduction in cell count vs disease control)”. The “Neutrophils in BALF, reduction” value ([6]; 0.75 mg/kg IV) was “+ (+ = >5% reduction in cell count vs disease control)”, the “Total Leukocytes in BALF, reduction” value ([6]; 0.75 mg/kg IV) was “+ (+ = >5% reduction in cell count vs disease control)” and the “Neutrophils in BALF, reduction” value ([6]; 7.5 mg/kg IV) was “+ (+ = >5% reduction in cell count vs disease control)”. For the same molecule, the “Total Leukocytes in BALF, reduction” value ([6]; 7.5 mg/kg IV) was “+ (+ = >5% reduction in cell count vs disease control)”, the “neutrophil counts compared to LPS-only controls (in words)” value ([6]; rat, in vivo) was “reduced both total leukocyte counts and neutrophil counts” and the “total leukocyte counts compared to LPS-only controls (in words)” value ([6]; rat, in vivo) was “reduced both total leukocyte counts and neutrophil counts”. The “Significant reduction in IL-1β” value ([3]; 0.1 nM) was “++ (indicates a p value<0.01 in Tukey post test)”, the “Significant reduction in IL-6” value ([3]; 0.1 nM) was “NS” and the “Significant reduction in TNF-α” value ([3]; 0.1 nM) was “NS”. For the same molecule, the “Significant reduction in IL-1β” value ([3]; 10 nM) was “++ (indicates a p value<0.01 in Tukey post test)”, the “Significant reduction in IL-6” value ([3]; 10 nM) was “+ (indicates a p value<0.05 in Tukey post test)” and the “Significant reduction in TNF-α” value ([3]; 10 nM) was “NS”. The “Significant reduction in IL-1β” value ([3]; 1000 nM) was “++ (indicates a p value<0.01 in Tukey post test)”, the “Significant reduction in IL-6” value ([3]; 1000 nM) was “++ (indicates a p value<0.01 in Tukey post test)” and the “Significant reduction in TNF-α” value ([3]; 1000 nM) was “+ (indicates a p value<0.05 in Tukey post test)”. The “expression of IL-1β (in words)” value ([3]; at at least one tested dose) was “significantly reduced the expression of IL-1β and TNF-α”, the “expression of IL-6 (in words)” value ([3]; at at least one tested dose) was “significantly reduced the expression of IL-6” and the “expression of TNF-α (in words)” value ([3]; at at least one tested dose) was “significantly reduced the expression of IL-1β and TNF-α”. The “CCL3, significant change in expression in BALF supernatant” value ([7]; 0.075 mg/kg IV) was “+ (+ = Significant change in cytokine quantification, p < 0.05 by Student's T-test.)”, the “CX3CL1, significant change in expression in BALF supernatant” value ([7]; 0.075 mg/kg IV) was “+ (+ = Significant change in cytokine quantification, p < 0.05 by Student's T-test.)” and the “EGF, significant change in expression in BALF supernatant” value ([7]; 0.075 mg/kg IV) was “+ (+ = Significant change in cytokine quantification, p < 0.05 by Student's T-test.)”. For the same molecule, the “IFN-γ, significant change in expression in BALF supernatant” value ([7]; 0.075 mg/kg IV) was “+ (+ = Significant change in cytokine quantification, p < 0.05 by Student's T-test.)”, the “IL-1α, significant change in expression in BALF supernatant” value (from here on “IL-1α, significant change in expression”) ([7]; 0.075 mg/kg IV) was “+ (+ = Significant change in cytokine quantification, p < 0.05 by Student's T-test.)” and the “IL-1β, significant change in expression in BALF supernatant” value ([7]; 0.075 mg/kg IV) was “+ (+ = Significant change in cytokine quantification, p < 0.05 by Student's T-test.)”. The “IL-10, significant change in expression in BALF supernatant” value (“IL-10, significant change in expression” below) ([7]; 0.075 mg/kg IV) was “+ (+ = Significant change in cytokine quantification, p < 0.05 by Student's T-test.)”, the “IL-12p70, significant change in expression in BALF supernatant” value ([7]; 0.075 mg/kg IV) was “+ (+ = Significant change in cytokine quantification, p < 0.05 by Student's T-test.)” and the “IL-17A, significant change in expression in BALF supernatant” value ([7]; 0.075 mg/kg IV) was “+ (+ = Significant change in cytokine quantification, p < 0.05 by Student's T-test.)”. For the same molecule, the “IFN-γ, significant change in expression in BALF supernatant” value ([7]; 0.75 mg/kg IV) was “+ (+ = Significant change in cytokine quantification, p < 0.05 by Student's T-test.)”, the “IL-1α, significant change in expression” value ([7]; 0.75 mg/kg IV) was “+ (+ = Significant change in cytokine quantification, p < 0.05 by Student's T-test.)” and the “IL-1β, significant change in expression in BALF supernatant” value ([7]; 0.75 mg/kg IV) was “+ (+ = Significant change in cytokine quantification, p < 0.05 by Student's T-test.)”. The “IL-10, significant change in expression” value ([7]; 0.75 mg/kg IV) was “+ (+ = Significant change in cytokine quantification, p < 0.05 by Student's T-test.)”, the “IL-17A, significant change in expression in BALF supernatant” value ([7]; 0.75 mg/kg IV) was “+ (+ = Significant change in cytokine quantification, p < 0.05 by Student's T-test.)” and the “IL-1α, significant change in expression” value ([7]; 7.5 mg/kg IV) was “+ (+ = Significant change in cytokine quantification, p < 0.05 by Student's T-test.)”. The “IL-10, significant change in expression” value ([7]; 7.5 mg/kg IV) was “+ (+ = Significant change in cytokine quantification, p < 0.05 by Student's T-test.)”, the “cytokines with significant changes in expression in BALF supernatant (list)” value ([7]; any dose, p<0.05 vs LPS-only animals) was “CCL3, CXCL1, IFN-γ, IL-1α, IL-1p, IL-1β, IL-12p70, and IL-17A” and the “neurite length / extension of neurites (in words)” value (Rat hippocampal neurons [8]) was “increase neurite length at 1 nM”. The “Significant increase in: Neurite length” value (Rat hippocampal neurons [8]; 1 nM, Table 4 study) was “++++ (++++ = p < 0.0001)”.
